Columns and labels:
PTH1-receptor = PTH1-receptor (Homo sapiens, UniProt Q03431); assay: competitive binding study at PTH1-receptor; settings: radio ligand concentration of 1 nM; FIG. 15
Y-receptor Y1 = molecular target: T1, Y-receptor Y1 (Homo sapiens, UniProt P25929); assay: competitive binding studies at the Y1 receptor; settings: FIG. 9
T1 sequence (P25929 1-384): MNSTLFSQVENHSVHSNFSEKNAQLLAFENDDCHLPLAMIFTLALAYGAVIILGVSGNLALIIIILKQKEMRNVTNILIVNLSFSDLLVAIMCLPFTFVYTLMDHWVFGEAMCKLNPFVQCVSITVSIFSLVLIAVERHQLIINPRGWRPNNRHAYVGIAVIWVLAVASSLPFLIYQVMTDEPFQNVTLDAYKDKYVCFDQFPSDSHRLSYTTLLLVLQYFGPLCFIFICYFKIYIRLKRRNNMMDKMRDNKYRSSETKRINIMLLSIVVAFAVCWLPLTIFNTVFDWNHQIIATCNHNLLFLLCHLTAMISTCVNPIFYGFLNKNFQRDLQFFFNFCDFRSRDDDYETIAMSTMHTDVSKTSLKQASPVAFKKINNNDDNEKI
Method: (§1) The performance of the binding assays was performed as previously described.^(5)

Y-receptor Y2 = molecular target: T2, Y-receptor Y2 (Homo sapiens, UniProt P49146); assay: competitive binding studies at the Y2 receptor; settings: FIG. 9
T2 sequence (P49146 1-381): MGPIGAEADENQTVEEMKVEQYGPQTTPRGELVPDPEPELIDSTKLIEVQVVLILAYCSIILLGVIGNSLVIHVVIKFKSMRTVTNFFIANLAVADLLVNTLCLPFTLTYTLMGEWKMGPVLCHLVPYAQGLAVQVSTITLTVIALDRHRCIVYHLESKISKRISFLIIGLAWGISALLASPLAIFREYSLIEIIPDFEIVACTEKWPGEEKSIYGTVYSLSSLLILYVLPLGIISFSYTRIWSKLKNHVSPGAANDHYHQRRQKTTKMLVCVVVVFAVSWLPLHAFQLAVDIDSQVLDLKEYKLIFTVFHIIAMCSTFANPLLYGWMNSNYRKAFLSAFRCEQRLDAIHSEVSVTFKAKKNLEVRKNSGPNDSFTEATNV
Method: as §1

Y-receptor Y5 = molecular target: T3, Y-receptor Y5 (Homo sapiens, UniProt Q15761); assay: competitive binding studies at the Y5 receptor; settings: FIG. 9
T3 sequence (Q15761 1-445): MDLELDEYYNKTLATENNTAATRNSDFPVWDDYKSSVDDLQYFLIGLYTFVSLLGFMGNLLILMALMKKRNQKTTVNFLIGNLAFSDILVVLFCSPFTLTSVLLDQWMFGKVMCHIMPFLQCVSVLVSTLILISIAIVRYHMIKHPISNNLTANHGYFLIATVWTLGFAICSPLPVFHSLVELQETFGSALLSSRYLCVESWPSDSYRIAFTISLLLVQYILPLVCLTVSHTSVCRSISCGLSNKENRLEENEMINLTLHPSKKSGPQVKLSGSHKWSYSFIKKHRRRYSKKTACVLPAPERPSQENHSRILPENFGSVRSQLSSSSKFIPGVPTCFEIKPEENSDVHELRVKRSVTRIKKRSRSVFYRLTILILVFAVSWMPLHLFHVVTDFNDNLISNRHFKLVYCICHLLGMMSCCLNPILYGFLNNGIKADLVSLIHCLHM
Method: as §1

PTH1-receptor, sequence (Q03431 27-593): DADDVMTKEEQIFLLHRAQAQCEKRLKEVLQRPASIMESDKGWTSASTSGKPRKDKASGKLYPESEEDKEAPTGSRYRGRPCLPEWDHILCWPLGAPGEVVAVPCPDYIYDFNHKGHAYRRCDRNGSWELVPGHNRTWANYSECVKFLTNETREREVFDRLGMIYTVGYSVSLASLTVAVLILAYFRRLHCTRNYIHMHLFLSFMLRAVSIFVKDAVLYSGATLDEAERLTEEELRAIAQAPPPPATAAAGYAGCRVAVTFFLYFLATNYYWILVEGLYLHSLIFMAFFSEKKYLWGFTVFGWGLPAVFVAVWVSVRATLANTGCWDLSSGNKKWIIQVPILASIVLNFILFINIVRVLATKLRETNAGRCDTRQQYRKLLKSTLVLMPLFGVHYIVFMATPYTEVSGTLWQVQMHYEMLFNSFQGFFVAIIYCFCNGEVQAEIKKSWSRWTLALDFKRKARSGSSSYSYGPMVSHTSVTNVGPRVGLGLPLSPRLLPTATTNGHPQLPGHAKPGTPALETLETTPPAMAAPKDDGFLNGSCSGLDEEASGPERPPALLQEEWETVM

| Compound | behavior in competitive binding relative to non-marked PTH (1-34)-amide (PTH1-receptor) | behavior in competitive binding in comparison to commercially available ^3H-NPY (Y-receptor Y1) | behavior in competitive binding in comparison to commercially available ^3H-NPY (Y-receptor Y2) | behavior in competitive binding in comparison to commercially available ^3H-NPY (Y-receptor Y5) |
| --- | --- | --- | --- | --- |
| [3H]CC([3H])C(=O)NCCCC[C@H](NC(=O)CNC(=O)[C@H](CC(C)C)NC(=O)[C@H](CC(N)=O)NC(=O)[C@H](Cc1c[nH]cn1)NC(=O)[C@H](CCSC)NC(=O)[C@H](CC(C)C)NC(=O)[C@H](CCC(N)=O)NC(=O)[C@@H](NC(=O)[C@H](CCC(=O)O)NC(=O)[C@H](CO)NC(=O)[C@@H](NC(=O)[C@@H](N)CO)C(C)C)[C@@H](C)CC)C(=O)N[C@@H](Cc1c[nH]cn1)C(=O)N[C@@H](CC(C)C)C(=O)N[C@@H](CC(N)=O)C(=O)N[C@@H](CO)C(=O)N[C@@H](CCSC)C(=O)N[C@@H](CCC(=O)O)C(=O)N[C@@H](CCCNC(=N)N)C(=O)N[C@H](C(=O)N[C@@H](CCC(=O)O)C(=O)N[C@@H](Cc1c[nH]c2ccccc12)C(=O)N[C@@H](CC(C)C)C(=O)N[C@@H](CCCNC(=N)N)C(=O)N[C@@H](CCCCN)C(=O)N[C@@H](CCCCN)C(=O)N[C@@H](CC(C)C)C(=O)N[C@@H](CCC(N)=O)C(=O)N[C@@H](CC(=O)O)C(=O)N[C@H](C(=O)N[C@@H](Cc1c[nH]cn1)C(=O)N[C@@H](CC(N)=O)C(=O)N[C@@H](Cc1ccccc1)C(N)=O)C(C)C)C(C)C (stereo partly shown) [PTH (1-34)-amide marked at position 13, ^3H-proprionyl-Lys^13-PTH(1-34)-amide] | nearly identical behavior | – | – | – |
| ^3H-proprionyl-Lys^4-NPY [^3H-NPY] | – | identical behavior | identical behavior | identical behavior |

Source: patent US20040197824A1, “Method for selective radioactive marking of peptides” (priority 2002, published 2004)
